Patent publication US11155517B2, “4-substituted phenylamine derivatives and their use to protect crops by fighting undesired phytopathogenic micoorganisms” (PI INDUSTRIES LTD., priority 2016, dated 2021)

Key:
Format in all cases: cell-based
Septoria lycopersici = Septoria lycopersici (leaf spot of tomato) in vitro test, radial growth on Potato Dextrose Agar; conditions: 168 h, seven days, 25° C., read-out: % control compared to the untreated check (radial growth)
Botrytis cinerea = Botrytis cinerea (gray mold) in vitro test, radial growth on Potato Dextrose Agar; conditions: 168 h, 300 ppm, seven days, 22° C., read-out: % (control) compared to the untreated check (radial growth)
Rhizoctonia solani = Rhizoctonia solani (rice sheath blight/potato black scurf) in vitro test, radial growth on Potato Dextrose Agar; conditions: 168 h, 300 ppm, seven days, 25° C., read-out: % control compared to the untreated check (radial growth)
Fusarium culmorum = Fusarium culmorum (foot rot of cereals) in vitro test, radial growth on Potato Dextrose Agar; conditions: Fusarium culmorum, 168 h, read-out: % control compared to the untreated check (radial growth)
Colletotrichum capsici = Colletotrichum capsici (anthracnose) in vitro test, radial growth on Potato Dextrose Agar; conditions: Colletotrichum truncatum, 168 h; 300 ppm; seven days, 25° C.; read-out: % control compared to the untreated check (radial growth)
Alternaria solani = Alternaria solani (early blight of tomato/potato) in vitro test, radial growth on Potato Dextrose Agar; conditions: 168 h, 300 ppm, seven days, 25° C., read-out: % control compared to the untreated check (radial growth)
Pyricularia oryzae = assay: microbe, parasite or virus in culture; conditions: 168 h, read-out: % control compared to the untreated check (radial growth)

Compound	inhibition of growth at 300 ppm (Septoria lycopersici) [%]	inhibition of growth at 300 ppm (Botrytis cinerea) [%]	inhibition of growth at 300 ppm (Rhizoctonia solani) [%]	inhibition of growth at 300 ppm (Fusarium culmorum) [%]	inhibition of growth at 300 ppm (Colletotrichum capsici) [%]	inhibition of growth at 300 ppm (Alternaria solani) [%]	inhibition of growth at 300 ppm (Pyricularia oryzae) [%]
CCN(C)C=Nc1cc(C)c(Cc2cc(F)ccc2C)cc1Cl [Compound 165, N′-(2-chloro-4-(5-fluoro-2-methylbenzyl)-5-methylphenyl)-N-ethyl-N-methylformimidamide]	> 70	> 80	> 80	75	> 80	> 75	> 75
CCN(C)C=Nc1cc(C)c(Cc2cccc(C)c2)cc1C1CC1 [Compound 198, N′-(2-cyclopropyl-5-methyl-4-(3-methylbenzyl)phenyl)-N-ethyl-N-methylformimidamide]	> 70	> 80	> 80	75	> 80	> 75	> 75
CCN(C)C=Nc1cc(C)c(Cc2ccc(Cl)c(C(F)(F)F)c2)cc1C [Compound 142, N′-(4-(4-chloro-3-(trifluoromethyl)benzyl)-2,5-dimethylphenyl)-N-ethyl-N-methylformimidamide]	> 70	> 80	> 80	75	> 80	> 75	> 75
CCN(C)C=Nc1cc(C)c(Cc2ccccc2OC(F)(F)F)cc1F [Compound 207, N-ethyl-N′-(2-fluoro-5-methyl-4-(2-(trifluoromethoxy)benzyl)phenyl)-N-methylformimidamide]	> 70	> 80	> 80	75	> 80	> 75	> 75
CCN(C)C=Nc1cc(C)c(Cc2ccc(C(F)(F)F)cc2F)cc1C [Compound 201, N-ethyl-N′-(4-(2-fluoro-4-(trifluoromethyl)benzyl)-2,5-dimethylphenyl)-N-methylformimidamide]	> 70	> 80	> 80	75	> 80	> 75	> 75
CCN(C)C=Nc1cc(C)c(Cc2cc(F)cc(F)c2)cc1Cl [Compound 129, N′-(2-chloro-4-(3,5-difluorobenzyl)-5-methylphenyl)-N-ethyl-N-methylformimidamide]	> 70	> 80	> 80	75	> 80	> 75	> 75
CCN(C)C=Nc1cc(C)c(Cc2ccc(C)c(F)c2)cc1C [Compound 144, N-ethyl-N′-(4-(3-fluoro-4-methylbenzyl)-2,5-dimethylphenyl)-N-methylformimidamide]	> 70	> 80	> 80	75	> 80	> 75	> 75
CCN(C)C=Nc1cc(C)c(Cc2ccc(C)cc2)cc1C1CC1 [Compound 222, N′-(2-cyclopropyl-5-methyl-4-(4-methylbenzyl)phenyl)-N-ethyl-N-methylformimidamide]	> 70	> 80	> 80	75	> 80	> 75	> 75
CCN(C)C=Nc1cc(C)c(Cc2cccc(OC)c2)cc1C [Compound 45, N-ethyl-N′-(4-(3-methoxybenzyl)-2,5-dimethylphenyl)-N-methylformimidamide]	> 70	> 80	> 80	75	> 80	> 75	> 75
Cc1cc(N=CN2CCCCC2)c(C)cc1Cc1ccccc1F [Compound 58, N-(4-(2-fluorobenzyl)-2,5-dimethylphenyl)-1-(piperidin-1-yl)methanimine]	> 70	> 80	> 80	75	> 80	> 75	> 75
Cc1cc(N=CNC(C)C)c(C)cc1Cc1ccccc1F [Compound 66, N′-(4-(2-fluorobenzyl)-2,5-dimethylphenyl)-N-isopropylformimidamide]	> 70	> 80	> 80	75	> 80	> 75	> 75
CCN(C)C=Nc1cc(Cl)c(Cc2cccc(Cl)c2)cc1C [Compound 258, N′-(5-chloro-4-(3-chlorobenzyl)-2-methylphenyl)-N-ethyl-N-methylformimidamide]	> 70	> 80	> 80	75	> 80	> 75	> 75
CCN(C)C=Nc1cc(C)c(Cc2ccc(OC)cc2)cc1Cl [Compound 69, N′-(2-chloro-4-(4-methoxybenzyl)-5-methylphenyl)-N-ethyl-N-methylformimidamide]	> 70	> 80	> 80	75	> 80	> 75	> 75
CCN(C)C=Nc1cc(C)c(Cc2cc(C)cc(C)c2)cc1C [Compound 114, N′-(4-(3,5-dimethylbenzyl)-2,5-dimethylphenyl)-N-ethyl-N-methylformimidamide]	> 70	> 80	> 80	75	> 80	> 75	> 75
CCN(C)C=Nc1cc(C)c(Cc2ccccc2F)cc1C1CC1 [Compound 221, N′-(2-cyclopropyl-4-(2-fluorobenzyl)-5-methylphenyl)-N-ethyl-N-methylformimidamide]	> 70	> 80	> 80	75	> 80	> 75	> 75
CCN(C)C=Nc1cc(C)c(Cc2c(F)cccc2C(F)(F)F)cc1Cl [Compound 220, N′-(2-chloro-4-(2-fluoro-6-(trifluoromethyl)benzyl)-5-methylphenyl)-N-ethyl-N-methylformimidamide]	> 70	> 80	> 80	75	> 80	> 75	> 75
CCN(C)C=Nc1cc(C)c(Cc2ccc(F)c(F)c2)cc1Cl [Compound 138, N′-(2-chloro-4-(3,4-difluorobenzyl)-5-methylphenyl)-N-ethyl-N-methylformimidamide]	> 70	> 80	> 80	75	> 80	> 75	> 75
CCN(C)C=Nc1cc(C)c(Cc2cccc(OC)c2)cc1Cl [Compound 70, N′-(2-chloro-4-(3-methoxybenzyl)-5-methylphenyl)-N-ethyl-N-methylformimidamide]	> 70	> 80	> 80	75	> 80	> 75	> 75
CCN(C)C=Nc1cc(C)c(Cc2ccc(C)c(C)c2)cc1C [Compound 113, N′-(4-(3,4-dimethylbenzyl)-2,5-dimethylphenyl)-N-ethyl-N-methylformimidamide]	> 70	> 80	> 80	75	> 80	> 75	> 75
CCN(C)C=Nc1cc(C)c(Cc2ccc(C(F)(F)F)c(F)c2)cc1C [Compound 158, N-ethyl-N′-(4-(3-fluoro-4-(trifluoromethyl)benzyl)-2,5-dimethylphenyl)-N-methylformimidamide]	> 70	> 80	> 80	75	> 80	> 75	> 75
